Data as given in patent publication EP4361137A1, “PRUNE1 INHIBITORS AND THERAPEUTIC USE THEREOF” (CEINGE Biotecnologie Avanzate Franco Salvatore s.c. a r.l., priority 2022, dated 2024).

Key:
[1] = test system: MATH1-Prune1/TP53-/- cells; experiment: Real-time cell proliferation assay (cell index, xCELLigence); format: cell-based, murine; conditions: impedance every 2 min over 24 h
Description: Primary murine TNBC cells from tumors generated by MMTV-Prune1/Wnt1 mice [Ferrucci et al., 2021] and Primary murine Medulloblastoma Group 3 cells from tumors generated MATH-Prune1/TP53-/- mice were obtained (2 months from tumor onset).
(§1) Cellular proliferation rates were determined with the xCELLigence system (Roche). D425-MED, MATH-Prune1/TP53-/- and MMTV-Prune1/Wnt1 cells (8 × 10^3) were treated with increasing concentrations of LEO-AA7.5(S)T, harvested, and then added to a single well of an xCELLigence E-plate 16. The proliferation rates were determined at 2-min intervals by measuring the impedance changes across the electrodes at the bottoms of the wells. These cell index values were calculated by the xCELLigence RTCA software. with vehicle-treated cells were the negative control. Impedance was measured every 2 min over 24 hours. The IC50 values were calculated through nonlinear regression analysis performed with Graph Pad Prism 9 ([inhibitor] vs. response (three parameters). Data are means ± SD of three independent experiments.

D425-MED cells [2] = experiment: as above; format: cell-based, human; conditions: D425-Med cells
Description: J774A.1 murine macrophages (referred to as J774 cells; ATCC: #TIB-67), MMTV-Prune1-Wnt1 cells were grown in high-glucose Dulbecco's modified Eagle's medium (DMEM; Euroclone) supplemented with 20% (v/v) FBS, 2 mM L-glutamine, and 1% (v/v) antibiotics (Pen/Strep). D425-MED, D425-MED-Luc and […] cells were grown in high-glucose Dulbecco's modified Eagle's medium (DMEM; Euroclone) and Iscove's Modified Dulbecco's Medium (IMDM; Sigma) at 1:1 (v/v) dilution supplemented with 20% (v/v) FBS, 2 mM L-glutamine, 1% non-essential amino acid solution (M7145; Sigma-Aldrich/Merck), and 1% (v/v) antibiotics (Pen/Strep). The cells were grown at 37 °C in a humidified atmosphere of 95% air, 5% CO2 (v/v).
(§2) D425.MED and MMTV-Prune1/Wnt1 cells were plated and treated with increasing concentrations of LEO-AA7.5(S)T for 24 hours. Water-treated cells were used as negative control for the experiments.
as §1

[3] = test system: MATH1-Prune1/TP53-/- cells; experiment: Mouse cytokine antibody array on conditioned media; format: cell-based, murine; conditions: 10 µM, 24 hours; n.61 cytokines measured
Description: The conditioned media collected from three different vehicle- or 10 µM LEO-AA7.5(S)T-treated MATH1-Prune1/TP53-/- cells after 24 hours were pooled. The relative levels of cytokines in the pooled conditioned media and murine sera were measured (RayBio C-Series Mouse Cytokine Antibody Array C3 [AAM-CYT-3-2]), according to the manufacturer protocol. Densitometric analysis was carried out using the Quantity One software (BioRad). Expression levels were normalized to the levels of the positive control spots (contained within the membrane). For each cytokine, the mean ±standard error was determined.

Caspase 3 = Caspase 3 activity assay; format: cell-based, murine; conditions: MATH1-Prune1/TP53-/- cells
Description: MATH1-Prune1/TP53-/- cells (3×10^4) were plated in 96-well plate and treated with different doses of Vincristine (i.e., 0.3 nM or 0.03 nM) alone or combined to 10 µM LEO-AA7.5(S)T. Vehicle- (0.01% DMSO) treated cells were used as negative controls. Staurosporine-treated cells (1 µM) were used as positive controls of the assays. The assay was performed by using Caspase-3 Activity Assay Kit (#5723, Cell Signaling), by following the manufacture's instruction. Briefly, after 24 hours from the treatment started, cell medium was removed and 30 ul of cell lysis buffer (PI-7018, Cell Signaling) were added. The plate was then incubated for 5 minutes on ice. Later, 25 ul of cell lysate were mixed with 200 ul substrate solution B (#11734S, Cell Signaling) in a black 96 well plate. Fluorescence was detected by using a multimode plate reader (Enspire, 2300, PerkinElmer). The positive control AMC (25 µl, #11735S, Cell Signaling) mixed with 200 ul 1X assay buffer A (#11736S, Cell Signaling) was used as positive control of fluorescence.

MMTV-Prune1/Wnt1 cells [4] = experiment: Real-time cell migration analysis (cell index); format: cell-based, murine; conditions: 10 µM and 100 µM, dose dependent
MMTV-Prune1/Wnt1 cells [5] = experiment: Real-time cell proliferation assay (cell index, xCELLigence); format: cell-based, murine; conditions: 10 µM and 100 µM, dose dependent
Description: as §2, §1

Acute toxicity in vivo = experiment: Acute toxicity in vivo; set-up: species or system FVB mice; conditions: for hepatotoxicity or nephrotoxicity (glutamate-pyruvate transaminase 1, creatinine blood levels, blood urea nitrogen): HCl salt
Description: The toxicity of LEO-AA7.5(S)T was determined with 4-week-old FVB mice grouped according to body weight. Escalating doses of LEO-AA7.5(S)T (60mg or 120mg/kg/day) or vehicle (water) were administered intraperitoneally, daily for 12 days. At sacrifice, the blood and organs were collected and evaluated. Haematological and biochemical markers of hepatic and renal functions were evaluated. Data are expressed as means from four mice within each treatment group.

D425-Med cells [6] = experiment: In vivo combinatorial treatment with Vincristine, orthotopic medulloblastoma model; set-up: species or system nude mice
Description: We then measured the combinatorial treatment with (S)-(1-(4-((4-methoxybenzyl)amino)-1,3,5-triazin-2-yl)piperidin-3-yl)methanol HCl salt compound and Vincristine in vivo. To this end, D425-Med cells (1 ×10^5 cells) were implanted into the fourth ventricle of nude mice (n=18). After 7 days from tumour implantation (i.e., once the tumours were established) the mice (grouped according to their bioluminescence values) were injected intraperitoneally with 0.3 mg/kg/day Vincristine alone or in combination with 6 mg/kg/day (S)-(1-(4-((4-methoxybenzyl)amino)-1,3,5-triazin-2-yl)piperidin-3-yl)methanol HCl salt compound for 18 days (Figures 9E).

[7] = 60 and 120 mg/kg intraperitoneally, daily for 12 days

Compound: COc1ccc(CNc2ncnc(N3CCC[C@H](CO)C3)n2)cc1.Cl [LEO-AA7.5(S)T, (S)-(1-(4-((4-methoxybenzyl)amino)-1,3,5-triazin-2-yl)piperidin-3-yl)methanol HCl salt]
- half maximal inhibitory concentration (IC50) for the inhibition of cell proliferation index [1]: 31.1 µM
- cell proliferation rate, combination with Vincristine (D425-MED cells [2]; 10 µM added to 10 nM or 1 nM Vincristine): reduces the cell proliferation rate
- inhibition of cell proliferation, combination with Seclidemstat [SP-2577] (D425-MED cells [2]; 10 µM plus 22.5 µM Seclidemstat): enhance the inhibition of cell proliferation
- half maximal inhibitory concentration (IC50) for the inhibition of cell proliferation index (D425-MED cells [2]; impedance every 2 min over 24 h): 71 µM
- number of cytokines/ chemokines significantly downregulated in the conditioned media [3]: 10
- Caspase 3 activation, combination with Vincristine (Caspase 3; 10 µM plus 0.03 nM Vincristine): promotes Caspase 3 activation
- Caspase 3 activation, single agent (Caspase 3; Vincristine 0.3 nM and 0.03 nM, LEO-AA7.5(S)T 10 µM, 24 hours): does not induce apoptotic action
- migration rate (MMTV-Prune1/Wnt1 cells [4]): reduction
- proliferation rate (MMTV-Prune1/Wnt1 cells [5]): reduction
- liver, spleen and kidney weight, treated vs controls (Acute toxicity in vivo; 60mg or 120mg/kg/day intraperitoneally for 12 days): no decrease
- haematological parameters (e.g. white blood cell count) (Acute toxicity in vivo; [7]): no significant variations
- immediate toxicity effects (Acute toxicity in vivo; [7]): no immediate toxicity effects
- hepatotoxicity or nephrotoxicity (glutamate-pyruvate transaminase 1, creatinine blood levels, blood urea nitrogen) (Acute toxicity in vivo; [7]): absence of drug-induced hepatotoxicity and renal failure
- hepatotoxicity or nephrotoxicity (glutamate-pyruvate transaminase 1, creatinine blood levels, blood urea nitrogen) (Acute toxicity in vivo; 60 and 120 mg/kg intraperitoneally, daily for 12 days, listed as (S)-(1-(4-((4-methoxybenzyl)amino)-1,3,5-triazin-2-yl)piperidin-3-yl)methanol HC): no signs of hepatotoxicity or nephrotoxicity
- intracranial tumor growth, combinatorial treatment with Vincristine (D425-Med cells [6]; 6 mg/kg/day plus 0.3 mg/kg/day Vincristine intraperitoneally for 18 days): significantly decreased
- angiogenesis (IVISense Integrin Receptor 680 Fluorescent Probe) (D425-Med cells [6]; combinatorial treatment with Vincristine): decreased levels of angiogenesis
